Results: US9056133B2, “Pharmaceutical kit and method for treating cancer” (priority 2012, dated 2015)

How the values were obtained:
[1] = test system: SW1990 pancreatic tumoral cell line; assay: Combined effect of AV25CDC 5/3 and gemcitabine, MTT cell viability; assay type: cell-based, human; settings: alone or 24 h after virus at MOI 0.1, MTT six days later
Method: FIG. 8. In vitro synergic effect of AV25CDC 5/3 and gemcitabine in pancreatic tumoral cell line SW1990. Cells were infected with AV25CDC 5/3, at a MOI of 0.1 and 24 hours later gemcitabine was added at concentrations of 0.01 uM and 0.1 uM. Six days later, cell viability was measured using MTT assay.
Pancreatic tumoral cell lines (SW1990) were plated and infected with AV25CDC 5/3, at a MOI of 0.1 and 24 hours later, gemcitabine was added in concentrations of 0.01 uM and 0.1 uM. Six days later, cell viability was measured using MTT assay. There was no decrease on viability if only AV25CDC 5/3 is used at a MOI of 0.1, as well as no decrease was found adding gemcitabine at 0.01 uM. Nevertheless, the combination of both produced a decrease in cell viability of 20%. Using a higher concentration of gemcitabine, of 0.1 uM, on its own produced a decrease in viability of 20%, but combined with AV25CDC 5/3 at a MOI of 0.1, the viability decrease of 40%, considering the control (FIG. 8).

[2] = Biochemical profile and Ca 19.9 tumoral marker of treated animals at day 40; assay type: in vivo, athymic mice N:NIH(S)-nu
Method: Also, to evaluate efficacy of AV25CDC 5/3, on orthotopic tumors caused by SW1990 cells, E4 expression was evaluated at day 40, where an average of […] viral particles were found in the tumor indicating an active replication. On the other hand, biochemical parameters were evaluated at day 40, determining amylase, total and direct bilirubin, alkaline phosphatase (ALP) and aspartate aminotransferase (AST).
Tumoral marker levels Ca 19.9 were also determined.

SMILES: Nc1ccn([C@@H]2O[C@H](CO)[C@@H](O)C2(F)F)c(=O)n1 [gemcitabine]
- cytotoxicity at 0.1 µM ([1]; Homo sapiens, gemcitabine 0.1 uM, vs control, read-out: decrease in cell viability): 20%
- decrease in cell viability ([1]; gemcitabine 0.01 uM): no decrease
- ALP ([2]; average ± SD, day 40): 119.3 ± 25 U/L
- Amylase ([2]; average ± SD, day 40): 1151 ± 386 U/L
- Direct bilirubin ([2]; average ± SD, day 40): 0.14 ± 0.02 mg/dL
- GOT (AST) ([2]; average ± SD, day 40): 280 ± 64 U/L
- GPT (ALT) ([2]; average ± SD, day 40): 47 ± 17 U/L
- Total Bilirubin ([2]; average ± SD, day 40): 0.78 ± 0.05 mg/dL
- Ca 19.9 ([2]; tumoral marker, individual samples, day 40 after injection of virus): 27940 U/ml
